Assay results as given in EP0412814A2, “Pyridazinones having cardiotonic and beta blocking activity” (GLAXO WELLCOME INC., priority 1989, dated 1991).
Read-outs that look alike come from different tables or passages of the source.

Tests used:
Beta-1 adrenoceptor = target: T1, Beta-1 adrenoceptor (Rattus norvegicus, UniProt P18090); assay: Beta adrenoceptor binding assay: [I-125]-Pindolol displacement from rat brain cortical membranes; settings: IC₅₀ for displacement of [I-125]-Pindolol, 22°C, two hours, read-out: pIC₅₀ (converted)
T1 construct: rat brain cortices were used as the source of membrane vesicles; from tissue; host or cells: rat brain cortex membranes
T1 sequence (P18090 whole entry): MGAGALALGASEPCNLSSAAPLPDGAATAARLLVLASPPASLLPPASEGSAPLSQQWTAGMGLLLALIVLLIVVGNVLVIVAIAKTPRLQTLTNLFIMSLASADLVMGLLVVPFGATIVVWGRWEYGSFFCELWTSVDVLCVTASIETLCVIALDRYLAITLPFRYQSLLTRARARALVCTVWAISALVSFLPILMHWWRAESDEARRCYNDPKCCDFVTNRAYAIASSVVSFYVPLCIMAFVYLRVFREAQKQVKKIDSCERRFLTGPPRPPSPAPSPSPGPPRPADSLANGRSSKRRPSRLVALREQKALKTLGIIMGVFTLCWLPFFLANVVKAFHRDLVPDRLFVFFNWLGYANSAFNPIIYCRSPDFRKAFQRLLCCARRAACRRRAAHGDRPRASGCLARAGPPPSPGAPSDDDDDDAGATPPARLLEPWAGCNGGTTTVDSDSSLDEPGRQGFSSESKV
Description: Because of its receptor density rat brain cortices were used as the source of membrane vesicles to be used in the receptor binding assays. Freshly excised cortexes were homogenized in 20 volumes (w/v) 50 mM TRIS HCl Buffer (pH 7.5), with a glass/Teflon homogenizer following the procedure previously described by T.J. Rimele in J. Pharmacol. Exp. Ther. 239: 1-8, 1986. Beta-1 adrenoceptor binding activity was determined following methods described by M.H. Randall, et al, J. Med. Chem. 20: 1090-1094, 1977, and J. Homberger, et al in Mol. Pharmacol. 20: 453-469, 1981. The incubation mixture consisted of; 26 microliters of 50 mM TRIS/HCl, 10 mM MgCl₂ pH 7.6 buffer, 25 microliters of test drug or 10-6 pindolol to define nonspecific binding, 100 microliters of [I-125]-Pindolol (2200 Ci/mM) at a final concentration of 10-9, and 100 microliters of brain cortical membranes. […] The radioactivity in each filter containing the trapped membrane particles was counted with a gamma counter. […] All specific binding values obtained in the presence of test compounds were expressed as the percentage of specific binding displaced by the individual agents. The resultant values were plotted on a log plot of concentration of test compound vs. percentage of displacement and an IC₅₀ value (drug concentration which produces 50% displacement) determined. […]

guinea-pigs left atria = assay: Guinea pig left atria test: force of atrial contraction; settings: Cavia porcellus
Source text: Male Hartley guinea-pigs (300-400 grams) were sacrificed by cervical dislocation or carbon dioxide asphyxiation. The hearts were immediately removed and placed in oxygenated Krebs-Henseleit buffer (composition (millimolar): Na⁺ 143, K⁺ 5.9, Ca⁺⁺ 1.25, Mg⁺⁺ 1.2, Cl⁻ 128, HCO₃⁻ 25, SO₄⁻⁻ 1.2, H₂PO₄⁻ 1.0, and D-glucose 10). Left atria were dissected away from the remainder of the heart and mounted on holders against platinum punctate electrodes. The mounted atria were placed in tissue baths maintained at 31°C and oxygenated with 95% 0₂-5% CO₂ under 1.0 gram resting tension. The atria were stimulated through the punctate electrode and an external platimum electrode at the threshold voltage plus thirty percent, one Hertz frequency and five to ten milliseconds duration. Contractions were detected with a force displacement transducer and recorded on a physiograph. […]
Direct effects of the test compounds on the force of atrial contraction were observed and recorded after addition of the compounds to the tissue bath. […] Responses to the test compounds and forskolin were expressed as a percentage of the maximal response to forskolin. EC₅₀ values for the test compounds were calculated as the concentration of the compound neceesary to produce an inotropic response half that of the maximal response produced by the test compound. […]

[1] = test system: barbiturate-anesthetized dogs; assay: Anesthetized dog: inotropic effect (dP/dt) and inhibition of the isoproterenol response; format: in vivo; settings: for ED50: Canis lupus familiaris, iv, i.v. infusion, cumulative dose
Description: Inotropic effects were evaluated in barbiturate-anesthetized dogs by differentiating left intraventricular pressure. This procedure was carried out essentially as described by M.K. Grizzel et al in the FASEB Journal, Vol. 3, page 1039, abstract 4728 (1989). Purpose breed mongrel dogs (14-20 kg) of either sex were anesthetized with a mixture of sodium pentobarbital (15 mg/kg) and sodium barbital (300 mg/kg) i.v., intubated with a cuffed endotracheal tube and ventilated with a respirator (Harvard Apparatus, model 613, South Natick, MA) with room air (22 rpm,10-12 ml/kg/stroke). A 5F pressure transducer (Millar Instruments, Mikkro-tip Houston, TX) was inserted through the right carotid artery into the left ventricle to monitor intraventricular pressure. The left ventricular pressure signal was differentiated (using a 100 Hz low pass differential amplifier, Gould Inc., Cleveland, OH) to obtain its maximal rate of rise (+dP/dt), and used to trigger a biotach amplifier to record heart rate. Cardiac output was determined via thermodilution with a Spectramed computer (Starcom, Oxnard, CA) and a 5F Swan Ganz catheter which was inserted into the right jugular vein and positioned in the pulmonary artery. The femoral artery was cannulated for monitoring arterial blood pressure with a pressure transducer (Micron model MP15D, Simi Valley, CA). A lead II electrocardiogram was measured using subcutaneous electrodes. […] Rectal temperature was monitored and maintained at 37-38°C with a heating pad (Baxter Health Care model K20, McGaw Park, IL). All variables were recorded using a Gould 3800S physiograph.
Isoproterenol ([…]) was injected i.v. into the cephalic vein at 10 min intervals except for when the test drug infusion was begun. […] Inhibition of the isoproterenol responses on contractility (dP/dt), heart rate and diastolic blood pressure were determined at each dose of test compound. The inotropic effect of each compound was determined by comparing the level of dP/dt at the end of each 10 min period to that of the level of dP/dt just prior to the infusion of test compound. […]

rat aorta = assay: Rat aorta protocol: relaxation of phenylephrine-contracted rat aorta rings (endothelium removed); settings: percentage of maximal relaxation produced by nitroprusside (1 X 10⁻⁴ M), at the highest dose tested (100 micromolar), read-out: maximal response
Description: Such vasorelaxation appears to be related to inhibition of the phosphodiesterase (PDE) isozyme related to the cardiac sarcoplasmic reticulum. Thus, relaxation of rat aorta can be used as a screen to eliminate compounds which are not PDE inhibitors prior to testing for actual inotropic activity.
Rings of rat aorta (endothelium removed) were prepared for the measurement of isometric force in isolated tissue organ chambers essentially as previously described by T.J. Rimele et al in the Journal of Pharmacol. Exp. Ther. 245:102-111 (1988). The experimental portion of the protocol began with the addition of methylene blue (1 X 10⁻⁵ M) and propranolol (1 X 10⁻⁶ M) to each organ chamber to inhibit basal cGMP accumulation due to soluble guanylate cyclase and beta-adrenoceptors. Phenylephrine (1 X 10⁻⁷ M) was then added and the rings were allowed to obtain a stable contractile response after which time, the test compound was added in a cumulative fashion. The relaxation induced by each concentration of the test compound was expressed as a percentage of the maximal relaxation produced by nitroprusside (1 X 10⁻⁴ M). […] The IC₅₀ (concentration of test compound which produced a relaxation equivalent to 50% of the maximal relaxation induced by nitroprusside) was determined for each tissue. […]

SMILES: O=C(COc1ccc(C2=NNC(=O)CC2)cc1Cl)NCCNC[C@H](O)COc1ccccc1 [Example 19, 6-{4-[N-[2-[3-phenoxy-2-hydroxypropylamino]ethyl]carbamoylmethoxy]-3-chlorophenyl}-4,5-dihydro-3(2H)-pyridazinone]
- IC50 (Beta-1 adrenoceptor): 0.0269 µM
- EC50 (guinea-pigs left atria; concentration producing an inotropic response half that of the maximal response produced by the test compound, read-out: ED₅₀): 9 µM
- Emax at 100 µM (guinea-pigs left atria; percentage of the maximal response to forskolin, at 100 micromolar, propranolol and phentolamine (1.0 micromolar) present): 83%
- ED50 ([1]; 50% increase in dP/dt compared to a baseline established prior to drug infusion, read-out: inotropic ED₅₀): 0.114 µmol/kg
- ED50 ([1]; 50% inhibition of the dP/dt response to isoproterenol, read-out: ED₅₀ for inhibition of the isoproterenol response): 0.469 µmol/kg
- inotropic effects with atenolol ([1]; whether the inotropic effects are blocked by atenolol): not blocked by atenolol
- Emax at 100 µM (rat aorta): 100%
